Active and inactive are the calls of the source. Rule as the data show it: actives have a measured IC50 and inactives only a lower limit.

In the assay the target is Envelope glycoprotein gp160 (Human immunodeficiency virus 1, UniProt Q6QLK5). Nature of the assay: cell-free HIV fusion peptide-binding blockers – biochemical, uHTS, fluorescence dequenching, […] (AID 1986).
Chain of Envelope glycoprotein gp160 (Q6QLK5 whole entry, the tested form may be a part): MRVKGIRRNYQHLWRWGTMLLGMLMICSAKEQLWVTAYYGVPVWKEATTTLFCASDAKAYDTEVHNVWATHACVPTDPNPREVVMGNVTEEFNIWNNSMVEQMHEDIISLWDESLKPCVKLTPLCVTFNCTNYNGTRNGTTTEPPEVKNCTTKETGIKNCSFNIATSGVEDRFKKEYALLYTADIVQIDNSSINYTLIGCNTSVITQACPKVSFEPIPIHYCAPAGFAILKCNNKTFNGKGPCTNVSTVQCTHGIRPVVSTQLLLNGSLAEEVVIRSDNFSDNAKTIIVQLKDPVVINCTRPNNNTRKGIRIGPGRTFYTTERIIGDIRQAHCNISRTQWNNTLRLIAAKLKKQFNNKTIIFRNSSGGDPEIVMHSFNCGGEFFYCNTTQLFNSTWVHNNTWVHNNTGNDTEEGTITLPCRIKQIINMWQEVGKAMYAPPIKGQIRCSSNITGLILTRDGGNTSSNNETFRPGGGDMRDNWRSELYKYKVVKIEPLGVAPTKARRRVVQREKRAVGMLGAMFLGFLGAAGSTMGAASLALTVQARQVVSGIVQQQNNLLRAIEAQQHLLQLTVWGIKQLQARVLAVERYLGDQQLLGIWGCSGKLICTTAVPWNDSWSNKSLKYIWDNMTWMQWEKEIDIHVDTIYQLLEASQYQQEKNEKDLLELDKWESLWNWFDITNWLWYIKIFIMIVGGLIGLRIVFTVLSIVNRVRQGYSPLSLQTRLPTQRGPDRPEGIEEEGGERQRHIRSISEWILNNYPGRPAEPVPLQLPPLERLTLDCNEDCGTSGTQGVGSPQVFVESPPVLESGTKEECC
As a reminder, the IC50 is the concentration at which inhibition is half-maximal. In the case of `COc1ccc(OC)c(N2C(=O)/C(=C/c3ccco3)C(=O)NC2=S)c1`, the IC50 was 12.6 µM (active).
In the case of `N#Cc1c(O)nc(SCC(=O)N2c3ccccc3Sc3ccccc32)nc1-c1ccccc1`, the IC50 is 13.1 µM (active).
Regarding `O=C1NN(c2ccc(Cl)cc2)C(=O)/C1=C\c1ccc(-c2cccc(C(=O)O)c2)o1`, the IC50 was 11.9 µM (active).

Values taken from ChEMBL document CHEMBL1201862, “PubChem BioAssay data set” (2004).
